Measurements as given in article PMC12006963, “Application of Deuterium in an M1 Positive Allosteric Modulator Back-Up Program: The Discovery of VU6045422” (ACS Chemical Neuroscience, 2025).
Like-named read-outs stand apart in the source and are kept apart here.

Tests used:
rM1 = target: T1, rM1 (Rattus norvegicus, UniProt P08482); assay: Calcium mobilization, rat M1 (agonist and PAM modes); type: cell-based
T1 sequence (P08482 1-460): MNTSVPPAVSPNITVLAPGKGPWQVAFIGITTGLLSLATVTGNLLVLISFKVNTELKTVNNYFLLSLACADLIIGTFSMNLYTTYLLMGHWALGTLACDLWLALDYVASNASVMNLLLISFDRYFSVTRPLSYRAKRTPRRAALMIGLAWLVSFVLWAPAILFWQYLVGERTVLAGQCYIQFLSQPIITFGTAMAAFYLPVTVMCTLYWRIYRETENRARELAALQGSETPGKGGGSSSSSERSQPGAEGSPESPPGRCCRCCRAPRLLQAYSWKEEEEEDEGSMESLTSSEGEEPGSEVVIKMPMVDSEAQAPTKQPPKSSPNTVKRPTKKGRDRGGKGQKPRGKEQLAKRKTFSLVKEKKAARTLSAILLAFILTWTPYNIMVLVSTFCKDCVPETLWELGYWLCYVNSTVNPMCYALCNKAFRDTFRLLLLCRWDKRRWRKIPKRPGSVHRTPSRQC

[1] = Predicted hepatic clearance, hepatic microsomes (cyno); type: in vitro ADME
[2] = Plasma protein binding, equilibrium dialysis (cyno); type: in vitro ADME; settings: cynomolgus monkey, pH 7.4, read-out: fu,plasma
Protocol: page 5: Drug Metabolism Methods: In vitro Plasma protein binding and Brain homogenate binding: Determination of fraction unbound (f u) in plasma was conducted in vitro via equilibrium dialysis using HTDialysis (HTD) membrane plates. The top half of the plate was filled with 100 uL of Dubelco’s Phosphate Buffered Saline, pH 7.4 (DPBS). Compounds were diluted into plasma from each species (5 µM final concentration), which was aliquoted in triplicate to the ‘bottom half’ of the prepared HTD plate wells. The HTD plate was sealed and incubated for 6 hours at 37 °C. Following incubation, each well (both top and bottom halves) were transferred (20 µL) to the corresponding wells of a 96- shallow-well (V-bottom) plate. The daughter plates were then matrix-matched (DPBS side wells received equal volume of plasma, and plasma side wells received equal volume of DPBS), and extraction solution (120 µL; acetonitrile containing 50 nM carbamazepine as IS) was added to all wells of both daughter plates to precipitate protein and extract test article. The plates were then sealed and centrifuged (3500 rcf) for 10 minutes at ambient temperature. Supernatant (60 µL) from each well of the daughter plates was then transferred to the corresponding wells of new daughter plates (96-shallow-well, V bottom) containing water (Milli-Q, 60 µL/well), and the plates were sealed in preparation for LC-MS/MS analysis (see LC-MS/MS analysis method below). The unbound fraction (f u) was calculated following the equation below, and mean values for each species were calculated from 3 replicates. […] Fraction unbound for both plasma and brain samples was determined using Equation 4. f = Concbuffer u Concplasma Equation 4 Determination of fraction unbound in plasma. […]

Brain homogenate binding = type: in vitro ADME; settings: pH 7.4; rat brain homogenate; read-out: fu,brain
Protocol: Plasma protein binding and Brain homogenate binding: Determination of fraction unbound (f u) in plasma was conducted in vitro via equilibrium dialysis using HTDialysis (HTD) membrane plates. The top half of the plate was filled with 100 uL of Dubelco’s Phosphate Buffered Saline, pH 7.4 (DPBS). Compounds were diluted into plasma from each species (5 µM final concentration), which was aliquoted in triplicate to the ‘bottom half’ of the prepared HTD plate wells. The HTD plate was sealed and incubated for 6 hours at 37 °C. Following incubation, each well (both top and bottom halves) were transferred (20 µL) to the corresponding wells of a 96-shallow-well (V-bottom) plate. The daughter plates were then matrix-matched (DPBS side wells received equal volume of plasma, and plasma side wells received equal volume of DPBS), and extraction solution (120 µL; acetonitrile containing 50 nM carbamazepine as IS) was added to all wells of both daughter plates to precipitate protein and extract test article. The plates were then sealed and centrifuged (3500 rcf) for 10 minutes at ambient temperature. […]
The unbound fraction (f u) was calculated following the equation below, and mean values for each species were calculated from 3 replicates.
A similar approach was used to determine the degree of brain homogenate binding, which employed the same methodology and procedure with the following modifications: 1) a final compound concentration of 1 μM was used, 2) naïve rat brains were homogenized in DPBS (1:3 composition of brain: DPBS, w/w) using a Mini-Bead Beater™ machine in order to obtain brain homogenate, which was then treated in the same manner as the plasma samples in the previously described plasma protein binding assay. Fraction unbound for both plasma and brain samples was determined using Equation 4. […]
The diluted fraction unbound (fu2) in brain was calculated in the same manner by using brain homogenate rather than plasma. Undiluted fraction unbound for the brain was calculated using […]

[3] = In vivo IV/PO pharmacokinetics, rat; settings: rat (SD), dose iv/po mg/kg: 1 1/3, 3 1/10, 5 1/10; for clearance / Vd / half-life: Sprague-Dawley, plasma, 1 mg/kg; for clearance: read-out: CLp; for Vd: read-out: Vss; for half-life: read-out: elimination t1/2 (converted)
[4] = PAM mode, read-out: rM1 PAM EC50
[5] = agonist mode, read-out: rM1 Agonist EC50

Row | SMILES | rM1 PAM AChmax (%) (rM1) | EC50 (rM1; [4]) [µM] | EC50 (rM1; [5]) [µM] | Predicted CLhep [1] [mL/min/kg] | fraction unbound at 6 h, 5 µM [2] | fraction unbound at 6 h, 1 µM (Brain homogenate binding) | clearance [3] [mL/min/kg] | Vd [3] [L/kg] | half-life [3] [h] | F (%) po [3] [%]
1 | [2H]C1([2H])c2ncccc2C(=O)N1Cc1c(F)cc(-c2cccc3nn(C)cc23)cc1F [compound 3] | 85 | 0.361 | > 30 | 27.4 | 0.039 | 0.031 | 5.5 | 1.4 | 3 | 100
2 | [2H]C1([2H])c2ncccc2C(=O)N1Cc1c(F)cc(-c2cccc3nn(C([2H])([2H])[2H])cc23)cc1F [compound 5] | 82 | 0.249 | > 30 | 27.5 | 0.044 | 0.036 | 4.8 | 1.1 | 3.6 | 100
3 | Cn1cc2c(-c3cc(F)c(CN4Cc5ncccc5C4=O)c(F)c3)cccc2n1 [compound 1] | 79 | 0.213 | > 30 | 5.6 | 0.059 | 0.04 | 3 | 0.67 | 3 | 93
